Counter-ions that a name gives are not always drawn. Like-named read-outs stand apart in the source and are kept apart here.
How the values were obtained:
[1] = target: PameOBP2 (Periplaneta americana, UniProt B6E9U8); assay: Competitive fluorescence binding assay (1-NPN displacement), recombinant PameOBP2
Source text: (§1) The PameOBPs were expressed by using Escherichia coli expression system. To generate properly folded protein, the signal peptide predicted by SignalIP 4.1 [18] was removed. The two PameOBPs were amplified by gene special primers (S1 Table) with the cDNA as the template. The purified PCR products were ligated into expression vector pGEX-4T-1 using In-Fusion® HD Cloning Kit (Clontech, Mountain View, CA) according to the manufacturer’s instructions. The recombinant plasmid was transformed into E. coli BL21 (DE3) cells, and then expression and purification was performed according to a previously reported protocol. Recombinant proteins in the supernatant were purified by an affinity chromatography column GSTrap FF (GE Healthcare, Piscataway, NJ, USA). The GST tags were cleaved from recombinant proteins using 400 μL of thrombin (1U/μL) while loaded on GSTrap FF column at 25°C for 10 h and allowed 12 h. After that, the recombinant proteins were eluted with PBS buffer. Finally, the eluted proteins were desalted using HiTrap Desalting (GE Healthcare), lyophilized, and stored at −80°C until use.
(§2) Emission fluorescence spectra were measured on a Hitachi F-4500 fluorescence spectrophotometer following our previous studies. Firstly, dissociation constants of the PameOBPs for N-phenyl-1-naphtylamine (1-NPN) were calculated to determine the suitability of 1-NPN as a fluorescence reporter. […] The binding data were analyzed following our previous studies.

[2] = target: PameOBP1 (Periplaneta americana, UniProt B6E9U7); assay: Competitive fluorescence binding assay (1-NPN displacement), recombinant PameOBP1
Source text: as §1, §2

[3] = target: PameOBP3 (Periplaneta americana, UniProt B6E9U9); assay: Competitive fluorescence binding assay (1-NPN displacement), recombinant PameOBP3
Source text: as §1, §2

[4] = 2 μM 1-NPN as fluorescent reporter, competitor 0.25–2.5 μM or 2–40 μM, read-out: PameOBP2 IC50
[5] = 2 μM 1-NPN as fluorescent reporter, competitor 0.25–2.5 μM or 2–40 μM, read-out: PameOBP2 Ki
[6] = 2 μM 1-NPN as fluorescent reporter, competitor 0.25–2.5 μM or 2–40 μM, read-out: PameOBP1 IC50
[7] = 2 μM 1-NPN as fluorescent reporter, competitor 0.25–2.5 μM or 2–40 μM, read-out: PameOBP1 Ki
[8] = 2 μM 1-NPN as fluorescent reporter, competitor 0.25–2.5 μM or 2–40 μM, read-out: PameOBP3 Ki
[9] = PameOBP2 Ki, 2 μM 1-NPN as fluorescent reporter, competitor 0.25–2.5 μM or 2–40 μM
[10] = PameOBP1 Ki, 2 μM 1-NPN as fluorescent reporter, competitor 0.25–2.5 μM or 2–40 μM

Sequence of PameOBP3 (B6E9U9 entry or part of it): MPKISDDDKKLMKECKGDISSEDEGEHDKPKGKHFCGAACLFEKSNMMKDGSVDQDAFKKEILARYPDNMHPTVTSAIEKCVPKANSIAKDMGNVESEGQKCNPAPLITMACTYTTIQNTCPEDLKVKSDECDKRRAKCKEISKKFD
Sequence of PameOBP1 (B6E9U7 entry or part of it): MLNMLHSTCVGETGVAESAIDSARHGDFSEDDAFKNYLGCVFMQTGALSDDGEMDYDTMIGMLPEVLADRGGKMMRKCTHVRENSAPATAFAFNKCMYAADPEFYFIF
Sequence of PameOBP2 (B6E9U8 entry or part of it): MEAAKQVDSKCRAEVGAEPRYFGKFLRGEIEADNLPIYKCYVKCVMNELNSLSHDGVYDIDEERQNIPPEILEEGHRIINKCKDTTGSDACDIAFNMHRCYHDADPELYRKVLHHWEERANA

| Compound | Ki [1, 5] [µM] | Ki [2, 7] [µM] | Ki [3, 8] [µM] | Ki [3] [µM] | Ki [1, 9] [µM] | Ki [2, 10] [µM] | further results |
| --- | --- | --- | --- | --- | --- | --- | --- |
| C=CC(C)(O)CCC=C(C)CCC=C(C)C (mixture of isomers) [Nerolidol] | 26.6 ± 2.79 | > 40 |  |  |  |  | IC50 [1, 4]: 32.9 ± 4.21 µM; IC50 [2, 6]: > 40 µM |
| CCCCCCO [1-hexanol] | > 40 | > 40 | > 40 |  |  |  |  |
| CCCCCCCCCCCC(C)=O [2-Tridecanone] | 1.23 ± 0.08 | 1.85 ± 0.17 |  |  |  |  | IC50 [1, 4]: 1.52 ± 0.16 µM; IC50 [2, 6]: 2.02 ± 0.16 µM |
| CCCCCC(C)O (centres unmarked) [2-heptanol] | > 40 | > 40 | > 40 |  |  |  |  |
| CCCCCC(C)=O [2-heptanone] | > 40 | > 40 | > 40 |  |  |  |  |
| CCCCC(C)=O [2-hexanone] |  |  |  | > 40 | > 40 | > 40 |  |
| CCCCCCCCC(CO)CCCCCC (centres unmarked) [2-hexyl-1-decanol] | > 40 | > 40 | > 40 |  |  |  |  |
| CCCCCCCCCCCCCC(C)=O [2-pentadecanone] | > 40 | > 40 | > 40 |  |  |  |  |
| CCCC(O)CC (centres unmarked) [3-hexanol] | > 40 | > 40 | > 40 |  |  |  |  |
| CCCC(=O)CC [3-hexanone] | > 40 | > 40 | > 40 |  |  |  |  |
| CC(=O)CCC=C(C)C [6-methyl-5-hepten-2-one] |  |  |  | > 40 | > 40 | > 40 |  |
| C[C@@H]1CC[C@H]2C(C)(C)[C@H]3C[C@@]12CC[C@@]3(C)O [(+)-cedrol] |  |  |  | > 40 | > 40 | > 40 |  |
| CC(=O)/C=C/C1=C(C)CCCC1(C)C [Beta- ionone] |  |  |  |  | 12.2 ± 0.9 | 14.4 ± 1.6 | IC50 [1]: 15 ± 1.1 µM; IC50 [2]: 15.8 ± 2.1 µM |
| CC/C=C\CCO [Cis-3-hexenol] |  |  |  | > 40 | > 40 | > 40 |  |
| CC/C=C\CCOC(=O)CCCCC [Cis-3-hexenyl hexanoate] | > 40 | 22.5 ± 2.6 |  |  |  |  | IC50 [1, 4]: > 40 µM; IC50 [2, 6]: 24.6 ± 1.9 µM |
| CC(C)=CCC/C(C)=C/CC/C(C)=C/CO [Farnesol] | 0.53 ± 0.06 | 0.92 ± 0.06 |  |  |  |  | IC50 [1, 4]: 0.65 ± 0.07 µM; IC50 [2, 6]: 1.01 ± 0.09 µM |

| Compound | Ki [1, 5] [µM] | Ki [2, 7] [µM] | Ki [3, 8] [µM] | Ki [3] [µM] | Ki [1, 9] [µM] | Ki [2, 10] [µM] | further results |
| --- | --- | --- | --- | --- | --- | --- | --- |
| CC(=O)OC/C=C(\C)CCC=C(C)C [Geranyl acetate] | 32.6 ± 2.95 | > 40 |  |  |  |  | IC50 [1, 4]: 40 ± 3.16 µM; IC50 [2, 6]: > 40 µM |
| CC(=O)CC/C=C(\C)CCC=C(C)C [Geranylacetone] | 6.97 ± 0.72 | > 40 |  |  |  |  | IC50 [1, 4]: 8.62 ± 0.68 µM; IC50 [2, 6]: > 40 µM |
| CCCCCCCCCCCCCC [Tetradecane] | 0.96 ± 0.1 |  |  |  |  |  | IC50 [1, 4]: 1.19 ± 0.09 µM; IC50 [2, 6]: > 40 µM |
| C=CC(C)(O)CC/C=C(\C)CCC=C(C)C (stereo not drawn) [Trans-nerolidol] | 12.6 ± 0.98 | > 40 |  |  |  |  | IC50 [1, 4]: 15.6 ± 1.3 µM; IC50 [2, 6]: > 40 µM |
| CC(=O)c1ccccc1 [acetophenone] | > 40 | > 40 | > 40 |  |  |  |  |
| CC1=CC[C@H](C(C)C)C=C1 [alpha-phellandrene] |  |  |  | > 40 | > 40 | > 40 |  |
| O=Cc1ccccc1 [benzaldehyde] |  |  |  | > 40 | > 40 | > 40 |  |
| CC(=O)OCc1ccccc1 [benzyl acetate] | > 40 | > 40 | > 40 |  |  |  |  |
| OCc1ccccc1 [benzyl alcohol] |  |  |  | > 40 | > 40 | > 40 |  |
| C=C1CC/C=C(\C)CC[C@@H]2[C@@H]1CC2(C)C [beta-caryophyllene] |  |  |  | > 40 | > 40 | > 40 |  |
| CCCCOC(C)=O [butyl acetate] |  |  |  | > 40 | > 40 | > 40 |  |
| CCCCOC=O [butyl formate] | > 40 | > 40 | > 40 |  |  |  |  |
| C=C1C2CCC(C2)C1(C)C (centres unmarked) [camphene] | > 40 | > 40 | > 40 |  |  |  |  |
| CCC/C=C\CO [cis-2-hexen-1-ol] |  |  |  | > 40 | > 40 | > 40 |  |
| CC/C=C\CC=O [cis-3-hexenal] | > 40 | > 40 | > 40 |  |  |  |  |
| CC/C=C\CCOC(C)=O [cis-3-hexenyl acetate] | > 40 | > 40 | > 40 |  |  |  |  |

Source: PMC5232348, “Molecular and Functional Characterization of Three Odorant-Binding Protein from Periplaneta americana” (PLoS ONE, 2017)
